Earlier results as cited in article PMC8764166, “Phenolic-Rich Plant Extracts With Antimicrobial Activity: An Alternative to Food Preservatives and Biocides?” (Frontiers in Microbiology, 2022).
Converted amounts (≈) assume the structure as drawn. Where two headings read alike, the source gives them in different places.

Legend:
Enterococcus faecalis = conditions: ref Adamczak et al., 2020
Bacillus cereus = conditions: for MIC against Bacillus cereus: ref Skroza et al., 2019
Salmonella Infantis = test system: Salmonella Infantis; set-up: method as in Skroza et al., 2019; conditions: ref Skroza et al., 2019
Pseudomonas aeruginosa = conditions: 2020
S. aureus = conditions: up to 20% (w/w) proteins, 37°C, 15°C or 6°C; ref Bouarab-Chibane et al. (2018b)
[1] = test system: biofilms with undesirable food spoiling or foodborne pathogenic microorganisms; set-up: method as in the references listed per substance; conditions: the references listed per substance
L. monocytogenes = test system: L. monocytogenes; set-up: method as in Pernin et al., 2019; conditions: ref Pernin et al., 2019
[2] = ŽMJ 129 (clinical isolate), 10^5–10^6 cfu·ml^−1, Mueller Hinton broth, 24 h 37°C, ref Skroza et al., 2019

O=C(O)c1ccccc1O [Salicylic acid]
MIC against Enterococcus faecalis (Enterococcus faecalis): 500 µg/mL (≈ 3620 µM)
MIC against Bacillus cereus (Bacillus cereus): 170 µg/mL (≈ 1230 µM)
MIC against E. coli (Escherichia coli; ref Adamczak et al., 2020): 250 to 500 µg/mL
MIC against E. coli (Escherichia coli; [2]): 170 µg/mL (≈ 1230 µM)
MIC against Salmonella Infantis (Salmonella Infantis): 170 µg/mL (≈ 1230 µM)
MIC against P. aeruginosa (Pseudomonas aeruginosa; ref Adamczak et al.): 500 µg/mL (≈ 3620 µM)
MIC against S. aureus (Staphylococcus aureus; ref Adamczak et al., 2020): 250 to 500 µg/mL
MIC against S. aureus (Staphylococcus aureus; ref Skroza et al., 2019): 350 µg/mL (≈ 2530 µM)

O=c1cc(-c2ccccc2)oc2cc(O)cc(O)c12 [Chrysin]
MIC against Enterococcus faecalis (Enterococcus faecalis): 1000 µg/mL (≈ 3930 µM)
MIC against E. coli (Escherichia coli; ref Adamczak et al., 2020): 500 µg/mL (≈ 1970 µM)
MIC against P. aeruginosa (Pseudomonas aeruginosa; ref Adamczak et al.): 500 µg/mL (≈ 1970 µM)
antibacterial activity in the presence of bovine meat proteins (S. aureus): always lost their bacteriostatic activity
MIC against S. aureus (Staphylococcus aureus; ref Adamczak et al., 2020): 500 µg/mL (≈ 1970 µM)

CC(C)(C)c1ccc(O)c(O)c1 [4-tert-butylcatechol]
activity against biofilms [1]: inhibit formation or to eradicate biofilms

COc1cc(C(=O)O)cc(OC)c1O [Syringic acid]
MIC against Bacillus cereus (Bacillus cereus): 250 µg/mL (≈ 1260 µM)
MIC against E. coli (Escherichia coli; [2]): 250 µg/mL (≈ 1260 µM)
MIC against S. typhimurium (Salmonella typhimurium; ref Phadungkit and Luanratana, 2006): S. typhimurium 0.0625 g·L^−1
MIC against Salmonella Infantis (Salmonella Infantis): 250 µg/mL (≈ 1260 µM)
MIC against S. aureus (Staphylococcus aureus; ref Skroza et al., 2019): 500 µg/mL (≈ 2520 µM)

O=C(/C=C/c1ccc(O)c(O)c1)O[C@H](Cc1ccc(O)c(O)c1)C(=O)O [Rosmarinic acid]
MIC against Enterococcus faecalis (Enterococcus faecalis): 1000 µg/mL (≈ 2780 µM)
MIC against Bacillus cereus (Bacillus cereus): S. aureus 0.45 g·L^−1 B. cereus 0.45 g·L^−1 E. coli 0.45 g·L^−1 S. Infantis 0.45 g·L^−1
MIC against E. coli (Escherichia coli; ref Adamczak et al., 2020): 500 µg/mL (≈ 1390 µM)
MIC against E. coli (Escherichia coli; [2]): S. aureus 0.45 g·L^−1 B. cereus 0.45 g·L^−1 E. coli 0.45 g·L^−1 S. Infantis 0.45 g·L^−1
MIC against Salmonella Infantis (Salmonella Infantis): S. aureus 0.45 g·L^−1 B. cereus 0.45 g·L^−1 E. coli 0.45 g·L^−1 S. Infantis 0.45 g·L^−1
MIC against P. aeruginosa (Pseudomonas aeruginosa; ref Adamczak et al.): 500 to 1000 µg/mL
MIC against S. aureus (Staphylococcus aureus; ref Skroza et al., 2019): S. aureus 0.45 g·L^−1 B. cereus 0.45 g·L^−1 E. coli 0.45 g·L^−1 S. Infantis 0.45 g·L^−1

C[C@@H]1O[C@@H](O[C@H]2[C@H](Oc3cc(O)c4c(c3)O[C@H](c3ccc(O)cc3)CC4=O)O[C@H](CO)[C@@H](O)[C@@H]2O)[C@H](O)[C@H](O)[C@H]1O [Naringin]
MIC against Enterococcus faecalis (Enterococcus faecalis): 1000 µg/mL (≈ 1720 µM)
MIC against E. coli (Escherichia coli; ref Adamczak et al., 2020): 500 µg/mL (≈ 861 µM)
MIC against P. aeruginosa (Pseudomonas aeruginosa; ref Adamczak et al.): 500 µg/mL (≈ 861 µM)

O=c1c(O)c(-c2ccc(O)cc2O)oc2cc(O)cc(O)c12 [morin]
activity against biofilms [1]: inhibit formation or to eradicate biofilms

Cc1ccc(O)c(O)c1 [4-methylcatechol]
activity against biofilms [1]: inhibit formation or to eradicate biofilms

O=c1cc(-c2ccc(O)cc2)oc2c([C@@H]3O[C@H](CO)[C@@H](O)[C@H](O)[C@H]3O)c(O)cc(O)c12 [Vitexin]
MIC against Enterococcus faecalis (Enterococcus faecalis): 1000 µg/mL (≈ 2310 µM)
MIC against E. coli (Escherichia coli; ref Adamczak et al., 2020): 500 µg/mL (≈ 1160 µM)
MIC against P. aeruginosa (Pseudomonas aeruginosa; ref Adamczak et al.): 500 µg/mL (≈ 1160 µM)

Oc1cccc(O)c1O [pyrogallol]
activity against biofilms [1]: inhibit formation or to eradicate biofilms

C[C@@H]1O[C@@H](O[C@@H]2[C@@H](O)[C@H](O)[C@@H](CO)O[C@H]2c2c(O)cc(O)c3c(=O)cc(-c4ccc(O)cc4)oc23)[C@H](O)[C@H](O)[C@H]1O [vitexin 2"-o-rhamnoside]
MIC against Enterococcus faecalis (Enterococcus faecalis): 1000 µg/mL (≈ 1730 µM)
MIC against E. coli (Escherichia coli; ref Adamczak et al., 2020): 500 µg/mL (≈ 864 µM)
MIC against P. aeruginosa (Pseudomonas aeruginosa; ref Adamczak et al.): 500 µg/mL (≈ 864 µM)

CC(C)=CCc1c(O)ccc2c1O[C@H]1c3ccc(O)cc3OC[C@@H]21 [Phaseollidin]
MIC against B. cereus (Bacillus cereus; ref Sadgrove et al., 2020): 10 µg/mL (≈ 30.8 µM)
MIC against E. coli (Escherichia coli; ref Sadgrove et al., 2020): 20 µg/mL (≈ 61.7 µM)
MIC against P. aeruginosa (Pseudomonas aeruginosa; ref Sadgrove et al.): 20 µg/mL (≈ 61.7 µM)
MIC against S. aureus (Staphylococcus aureus; ref Sadgrove et al., 2020): 10 µg/mL (≈ 30.8 µM)

CN(C)c1ccc2nc3c(C(=O)O)cc(=O)c(O)c-3oc2c1 [gallocyanin]
antibacterial activity in the presence of bovine meat proteins (S. aureus): kept its bactericidal activity at 37 °C up to a 5% (w/w) protein content in the medium, but not at 15 °C or 6 °C

COC1=CC(=O)C=C(OC)C1=O [2,6-dimethoxy-1,4-benzoquinone]
MIC against B. cereus (Bacillus cereus; ref Kim et al., 2010): 64 µg/mL (≈ 381 µM)
MIC against E. coli (Escherichia coli; ref Kim et al., 2010): 32 µg/mL (≈ 190 µM)
MIC against S. typhimurium (Salmonella typhimurium; ref Kim et al., 2010): 32 µg/mL (≈ 190 µM)
MIC against S. aureus (Staphylococcus aureus; ref Kim et al., 2010): 8 µg/mL (≈ 47.6 µM)

O=c1cc(-c2ccc(O)cc2)oc2cc(O)cc(O)c12 [Apigenin]
MIC against Enterococcus faecalis (Enterococcus faecalis): 1000 µg/mL (≈ 3700 µM)
MIC against E. coli (Escherichia coli; ref Adamczak et al., 2020): 500 µg/mL (≈ 1850 µM)
MIC against P. aeruginosa (Pseudomonas aeruginosa; ref Adamczak et al.): 500 µg/mL (≈ 1850 µM)
MIC against S. aureus (Staphylococcus aureus; ref Adamczak et al., 2020): 500 to 1000 µg/mL

O=C(O)c1ccc(O)cc1 [p-hydroxybenzoic acid]
mechanism of action against L. monocytogenes (L. monocytogenes): penetration or accumulation in the bacterial membrane of undissociated form
